Source: ChEMBL document CHEMBL1201862, “PubChem BioAssay data set” (2004)
The source made the active and inactive calls.

How the values were obtained:
[1] = test system: BJ; assay: BJ-TERT fibroblast viability loss – cell-based, RAS-independent, luminescence, dose response (AID 1933); assay type: functional; details: Homo sapiens
[2] = test system: BJ; assay: BJ-TERT-LT-ST fibroblast viability loss – cell-based, RAS-independent, luminescence, dose response (AID 1935); assay type: functional; details: Homo sapiens;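 also: BJ fibroblasts immortalized with TERT plus LT and ST oncogenes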
[3] = test system: BJ; assay: growth inhibition of engineered Ras-driven BJ cells – cell-based, alamar blue fluorescence, cherrypicked samples, dose response (AID 2631); assay type: functional; details: Homo sapiens;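 also: confirmatory dose-response assay in RAS-dependent BJ fibroblasts engineered with TERT, LT and ST, with cytotoxicity read by fluorescence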
[4] = test system: BJ; assay: cells; assay type: functional, cell-based; details: Homo sapiens
[5] = DRD fibroblast viability loss – cell-based, non-viral oncogenic, luminescence, dose response (AID 1934); assay type: functional; details: Homo sapiens
[6] = test system: H4; assay: Luminescence Cell-Based Dose Response HTS to Identify Activators of 5'UTR Stem-Loop Driven Prion Protein mRNA Translation in H4 Neuroglioblastoma Cells. [Related pubchem assays: 1829 (Project Summary), 1814 (Primary HTS)]; assay type: functional; details: Homo sapiens
[7] = reduction of Shn3 3'UTR-driven luciferase in osteoblasts – cell-based, Clone20 osteoblasts, firefly luciferase, cherry-picked, dose response (AID 624132); assay type: functional;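 also: firefly luciferase luminescence from reporter carrying the Shn3 3'UTR in osteoblasts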
[8] = biological target: T1, Microphthalmia-associated transcription factor (Homo sapiens, UniProt O75030); assay: reducers of TRPM1 reporter luminescence, concentration series – cell-based, SK-MEL-5, cherry-picked, set 3, MITF inhibitor project, dose response (AID 493073); assay type: functional;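 also: SK-MEL-5 melanoma cells with luciferase driven by the MITF target TRPM1 promoter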
T1 sequence (O75030 whole entry): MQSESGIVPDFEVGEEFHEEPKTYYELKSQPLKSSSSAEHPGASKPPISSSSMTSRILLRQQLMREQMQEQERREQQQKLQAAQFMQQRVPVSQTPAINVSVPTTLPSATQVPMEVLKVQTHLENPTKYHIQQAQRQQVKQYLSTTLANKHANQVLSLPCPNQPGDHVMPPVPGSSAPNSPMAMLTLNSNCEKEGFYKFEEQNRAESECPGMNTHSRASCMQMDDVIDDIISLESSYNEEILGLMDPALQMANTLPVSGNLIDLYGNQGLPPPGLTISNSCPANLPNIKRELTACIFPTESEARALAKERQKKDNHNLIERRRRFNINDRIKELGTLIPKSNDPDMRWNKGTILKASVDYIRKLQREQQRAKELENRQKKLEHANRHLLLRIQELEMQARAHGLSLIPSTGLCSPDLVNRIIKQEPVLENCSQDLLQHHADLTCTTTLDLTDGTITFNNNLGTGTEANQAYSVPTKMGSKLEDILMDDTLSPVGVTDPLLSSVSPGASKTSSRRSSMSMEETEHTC

[9] = Luminescence Cell-Based Dose Retest to Confirm Inhibitors of Cancer Stem Cells. [Related pubchem assays (depositor defined):AID2717, AID2721]; assay type: functional; details: Homo sapiens
[10] = test system: INS1; assay: INS-1E survival protection against cytokine death – cell-based, luminescence, retest, dose response (AID 449756); assay type: functional; details: Rattus norvegicus;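 also: cell death triggered by IL-1 beta plus TNF-alpha plus IFN-gamma mixture; protective hits raise ATP signal compared with cytokine alone wells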
[11] = Luminescence Cell-Based Dose Confirmation HTS to Identify Activators of 5'UTR Stem-Loop Driven Alpha-Synuclein mRNA Translation in H4 Neuroglioblastoma Cells. [Related pubchem assays: 1829 (Project Summary), 1814 (Primary HTS)]; assay type: functional
[12] = Luminescence Cell-Based Dose Response HTS to Identify Activators of Luciferase Translation or Activity in H4 […] Cells. [Related pubchem assays: 1829 (Project Summary), 1814 (Primary HTS)]; assay type: functional
[13] = biological target: T2, E3 ubiquitin-protein ligase XIAP (Homo sapiens, UniProt P98170); assay: Counter Screen using XIAP-Bir3 for Chemical Antagonists of Bir1/2 domains of IAP-family anti-apoptotic proteins. [Related pubchem assays (depositor defined):AID1018, AID1449, AID1514, AID1638, AID1749, AID1750, AID488957, AID488963]
T2 sequence (P98170 whole entry): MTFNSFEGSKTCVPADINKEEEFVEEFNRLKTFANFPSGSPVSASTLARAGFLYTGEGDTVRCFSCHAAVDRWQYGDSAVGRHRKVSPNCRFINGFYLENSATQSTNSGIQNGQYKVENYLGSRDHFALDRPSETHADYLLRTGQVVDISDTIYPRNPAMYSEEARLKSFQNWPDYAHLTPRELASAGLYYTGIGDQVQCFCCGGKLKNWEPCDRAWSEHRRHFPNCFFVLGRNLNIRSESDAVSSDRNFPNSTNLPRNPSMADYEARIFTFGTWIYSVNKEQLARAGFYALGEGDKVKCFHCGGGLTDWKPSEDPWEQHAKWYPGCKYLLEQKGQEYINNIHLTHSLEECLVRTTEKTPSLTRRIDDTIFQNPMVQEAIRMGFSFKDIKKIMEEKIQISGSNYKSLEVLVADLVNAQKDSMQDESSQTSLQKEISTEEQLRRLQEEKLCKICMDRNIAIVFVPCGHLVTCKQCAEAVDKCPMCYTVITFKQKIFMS

[14] = biological target: T2, E3 ubiquitin-protein ligase XIAP; assay: small molecules displacing peptide from XIAP – biochemical, IAP family, fluorescence polarization (AID 1018); assay type: functional
[15] = biological target: Cytochrome P450 2D6 (Homo sapiens, UniProt P10635);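 also: CYP2D6 member of a cytochrome P450 panel assay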
Cytochrome P450 2D6, sequence (P10635 whole entry): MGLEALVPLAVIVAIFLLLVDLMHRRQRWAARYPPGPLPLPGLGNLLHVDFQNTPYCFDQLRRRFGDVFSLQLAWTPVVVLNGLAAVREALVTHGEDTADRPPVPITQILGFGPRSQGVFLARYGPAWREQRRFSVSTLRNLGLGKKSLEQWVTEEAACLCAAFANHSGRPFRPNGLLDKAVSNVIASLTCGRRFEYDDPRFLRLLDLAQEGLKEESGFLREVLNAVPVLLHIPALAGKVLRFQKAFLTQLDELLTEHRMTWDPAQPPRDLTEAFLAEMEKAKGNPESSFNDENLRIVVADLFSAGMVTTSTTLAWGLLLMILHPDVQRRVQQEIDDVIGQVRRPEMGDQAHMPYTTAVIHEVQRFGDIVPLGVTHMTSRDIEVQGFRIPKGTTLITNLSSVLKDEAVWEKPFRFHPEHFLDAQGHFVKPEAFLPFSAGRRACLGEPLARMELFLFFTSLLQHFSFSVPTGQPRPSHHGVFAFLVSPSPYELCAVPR

[16] = biological target: T3, Cytochrome P450 1A2 (Homo sapiens, UniProt P05177);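 also: PubChem cytochrome P450 panel assay, CYP1A2 panel member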
T3 sequence (P05177 whole entry): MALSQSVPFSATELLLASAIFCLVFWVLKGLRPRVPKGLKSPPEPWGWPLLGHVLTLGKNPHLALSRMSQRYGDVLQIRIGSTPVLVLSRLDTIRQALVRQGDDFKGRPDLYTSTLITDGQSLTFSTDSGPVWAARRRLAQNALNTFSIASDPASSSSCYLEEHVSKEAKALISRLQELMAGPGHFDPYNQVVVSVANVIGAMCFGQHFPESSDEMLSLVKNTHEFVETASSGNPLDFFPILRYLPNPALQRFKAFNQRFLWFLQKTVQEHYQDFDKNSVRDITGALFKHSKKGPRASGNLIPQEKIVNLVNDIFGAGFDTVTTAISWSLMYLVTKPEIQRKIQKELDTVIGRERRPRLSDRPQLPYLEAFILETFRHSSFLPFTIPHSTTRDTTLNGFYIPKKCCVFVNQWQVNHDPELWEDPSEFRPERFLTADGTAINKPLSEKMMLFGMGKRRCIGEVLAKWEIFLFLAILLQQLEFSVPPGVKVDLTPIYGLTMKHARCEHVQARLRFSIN

[17] = biological target: Cytochrome P450 3A4 (Homo sapiens, UniProt P08684);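 also: CYP3A4 tested as one member of a cytochrome P450 panel screen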
Cytochrome P450 3A4, sequence (P08684 whole entry): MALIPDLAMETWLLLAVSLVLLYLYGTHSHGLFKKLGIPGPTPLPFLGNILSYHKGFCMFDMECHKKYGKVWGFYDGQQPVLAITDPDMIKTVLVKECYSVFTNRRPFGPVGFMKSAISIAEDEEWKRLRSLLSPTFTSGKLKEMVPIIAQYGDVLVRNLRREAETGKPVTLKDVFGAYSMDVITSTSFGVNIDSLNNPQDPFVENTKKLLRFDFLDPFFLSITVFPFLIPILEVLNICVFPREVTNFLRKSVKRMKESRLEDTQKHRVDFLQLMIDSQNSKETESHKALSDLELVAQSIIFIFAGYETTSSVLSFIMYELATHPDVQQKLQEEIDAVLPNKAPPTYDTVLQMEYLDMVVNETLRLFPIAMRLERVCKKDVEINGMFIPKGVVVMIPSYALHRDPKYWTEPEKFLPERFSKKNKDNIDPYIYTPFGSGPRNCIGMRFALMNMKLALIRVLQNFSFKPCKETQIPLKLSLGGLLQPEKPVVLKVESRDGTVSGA

[18] = biological target: 26S proteasome non-ATPase regulatory subunit 14 (Homo sapiens, UniProt O00487); assay: inhibition of proteasome subunit RPN11 – biochemical, fluorescence polarization, uHTS hits, confirmation (AID 602368); assay type: functional
26S proteasome non-ATPase regulatory subunit 14, sequence (O00487 whole entry): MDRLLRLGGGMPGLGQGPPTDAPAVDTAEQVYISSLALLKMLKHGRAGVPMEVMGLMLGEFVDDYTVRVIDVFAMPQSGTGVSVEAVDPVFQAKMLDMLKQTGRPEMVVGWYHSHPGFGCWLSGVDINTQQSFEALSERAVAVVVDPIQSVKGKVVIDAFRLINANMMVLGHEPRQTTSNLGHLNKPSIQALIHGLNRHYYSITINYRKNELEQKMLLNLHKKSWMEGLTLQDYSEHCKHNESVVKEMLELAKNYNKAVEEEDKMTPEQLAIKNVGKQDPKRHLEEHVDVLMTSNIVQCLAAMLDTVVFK

[19] = biological target: Prothrombin (Bos taurus, UniProt P00735); assay: thrombin protease inhibitors – biochemical, fluorescence polarization, uHTS hits, dose response (AID 602369); assay type: functional
[20] = biological target: 72 kDa type IV collagenase (Homo sapiens, UniProt P08253); assay: Dose Response validation of uHTS RPN11 inhibitor hits using a MMP-2 Fluorescence assay.; assay type: functional
72 kDa type IV collagenase, sequence (P08253 whole entry): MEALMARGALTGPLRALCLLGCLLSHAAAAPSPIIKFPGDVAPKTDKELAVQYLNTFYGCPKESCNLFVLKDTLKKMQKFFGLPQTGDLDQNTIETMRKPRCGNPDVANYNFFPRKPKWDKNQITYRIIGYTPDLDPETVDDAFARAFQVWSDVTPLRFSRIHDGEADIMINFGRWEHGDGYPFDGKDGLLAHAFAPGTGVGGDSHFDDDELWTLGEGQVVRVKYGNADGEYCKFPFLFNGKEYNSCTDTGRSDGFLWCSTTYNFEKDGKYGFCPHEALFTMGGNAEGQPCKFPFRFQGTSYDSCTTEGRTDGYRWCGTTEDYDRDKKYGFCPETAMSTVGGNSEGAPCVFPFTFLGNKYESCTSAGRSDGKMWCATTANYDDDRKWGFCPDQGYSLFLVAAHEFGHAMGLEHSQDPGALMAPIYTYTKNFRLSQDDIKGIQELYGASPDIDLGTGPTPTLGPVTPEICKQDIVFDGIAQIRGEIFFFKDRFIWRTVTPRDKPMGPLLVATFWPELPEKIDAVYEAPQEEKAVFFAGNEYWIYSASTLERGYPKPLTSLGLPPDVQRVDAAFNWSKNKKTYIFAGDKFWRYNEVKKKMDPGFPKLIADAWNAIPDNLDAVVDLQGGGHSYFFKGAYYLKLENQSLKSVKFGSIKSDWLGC

[21] = NIH3T3 cell viability loss – ATP luminescence, mouse fibroblasts, counter-screen, dose response (AID 2010); assay type: functional, cell-based;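 also: cells exposed to compound for about 90 hours before reading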
[22] = Trypanosoma cruzi growth suppression in host cells – NIH3T3 host cells, beta-gal luminescence, confirmation (AID 2044); assay type: functional, cell-based;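 also: intracellular parasites grown in NIH/3T3 mouse fibroblasts as host cells; luminescent beta-galactosidase reporter signal from transgenic T. cruzi replicating inside host cells; inhibitors lower the luminescence signal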
[23] = biological target: Cytochrome P450 2C19 (Homo sapiens, UniProt P33261); assay: Cytochrome panel assay with activity outcomes. Panel member name: p450-cyp2c19 Compounds with AC50 equal or less than 10 uM are considered active; assay type: functional; details: read-out: AC50
Cytochrome P450 2C19, sequence (P33261 whole entry): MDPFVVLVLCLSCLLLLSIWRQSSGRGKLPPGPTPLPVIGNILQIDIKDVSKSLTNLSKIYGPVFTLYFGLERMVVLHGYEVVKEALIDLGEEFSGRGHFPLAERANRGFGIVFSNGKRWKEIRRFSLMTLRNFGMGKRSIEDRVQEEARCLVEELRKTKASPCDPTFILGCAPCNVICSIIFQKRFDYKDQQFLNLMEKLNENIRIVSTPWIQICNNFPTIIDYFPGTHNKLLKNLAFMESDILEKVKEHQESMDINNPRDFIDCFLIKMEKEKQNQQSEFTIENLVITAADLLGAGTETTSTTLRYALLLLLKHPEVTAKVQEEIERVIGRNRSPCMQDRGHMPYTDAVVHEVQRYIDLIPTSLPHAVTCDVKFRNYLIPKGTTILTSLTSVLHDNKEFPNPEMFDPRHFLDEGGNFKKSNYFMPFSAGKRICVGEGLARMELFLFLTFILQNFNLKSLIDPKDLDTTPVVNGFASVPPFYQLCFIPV

[24] = biological target: T4, Hexokinase (Trypanosoma brucei, UniProt Q38C41); assay: Confirmation assay for inhibitors of Trypanosoma brucei hexokinase 1-Analogue-first series. [Related pubchem assays (depositor defined):AID1430, AID1632, AID2516, AID2560, AID2579, AID2600, AID449725, AID492951]; assay type: functional
T4 sequence (Q38C41 whole entry): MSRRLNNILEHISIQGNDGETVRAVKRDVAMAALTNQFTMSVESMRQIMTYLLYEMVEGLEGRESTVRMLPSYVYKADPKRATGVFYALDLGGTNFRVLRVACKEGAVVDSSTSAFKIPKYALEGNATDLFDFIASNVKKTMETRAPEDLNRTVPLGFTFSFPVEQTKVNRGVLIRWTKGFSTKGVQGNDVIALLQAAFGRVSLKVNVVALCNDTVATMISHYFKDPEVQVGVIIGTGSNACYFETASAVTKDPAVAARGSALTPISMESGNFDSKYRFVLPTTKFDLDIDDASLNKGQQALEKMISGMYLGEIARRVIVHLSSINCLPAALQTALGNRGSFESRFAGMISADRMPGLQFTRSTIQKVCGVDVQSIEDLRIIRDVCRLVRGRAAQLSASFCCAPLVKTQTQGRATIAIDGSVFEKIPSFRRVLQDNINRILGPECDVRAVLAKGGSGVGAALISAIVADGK

[25] = test system: SN12K1; assay: cells; assay type: functional; details: Homo sapiens
[26] = test system: P388/ADR; assay: cells; assay type: functional; details: Mus musculus
[27] = test system: P388; assay: cells; assay type: functional; details: Mus musculus
[28] = biological target: T5, Carboxy-terminal domain RNA polymerase II polypeptide A small phosphatase 1 (Homo sapiens, UniProt Q9GZU7); assay: CTDSP1 inhibitors, concentration-response, biochemical, absorbance readout, ultra-high-throughput screen actives (AID 540297); assay type: functional
T5 sequence (Q9GZU7 whole entry): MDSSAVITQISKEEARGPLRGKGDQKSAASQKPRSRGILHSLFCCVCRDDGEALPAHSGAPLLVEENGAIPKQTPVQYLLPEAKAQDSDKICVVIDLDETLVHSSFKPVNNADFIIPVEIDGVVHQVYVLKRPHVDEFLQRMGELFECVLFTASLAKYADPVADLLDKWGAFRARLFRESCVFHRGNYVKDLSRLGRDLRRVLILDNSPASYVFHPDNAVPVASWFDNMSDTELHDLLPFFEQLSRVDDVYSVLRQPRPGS

With CC(C)C(=O)Nc1ccc(C(=O)NCc2cccnc2)cc1 the EC50 [1] was > 150 µM (not active), the EC50 [2] was 19.4 µM (inconclusive) and the EC50 [3] was 18.9 µM (active). The EC50 [4] was 3.86 µM (active) and the EC50 [5] was > 150 µM (not active).
In the case of CCN(CC)Cc1c(O)ccc2c1O/C(=C\C=C\c1ccccc1)C2=O, the EC50 [6] is reported as > 120 µM (not active), the EC50 [1] is reported as > 150 µM (not active) and the AC50 [7] is reported as 1.96 µM (active). The AC50 [8] was 47.6 µM (active), the EC50 [2] was > 150 µM (inconclusive) and the EC50 [3] was > 133 µM (inactive). The AC50 [9] was 16.6 µM (active), the EC50 [4] was > 150 µM (not active) and the AC50 [10] was > 120 µM (inactive). The EC50 [11] was 16.5 µM (active), the EC50 [5] was 55.7 µM (active) and the EC50 [12] was 29.6 µM (active).
In the case of Cc1cc(C)cc(NC(=O)Nc2ccc3c(c2)N(C)C(=O)CS3)c1, the IC50 [13] is reported as > 100 µM (inactive) and the IC50 [14] is reported as > 100 µM (not active).
With CN1CCN(c2ccc(NC(=S)NC(=O)c3cccc4ccccc34)cc2)CC1 the AC50 [8] was 9 µM (active).
With O=C(NCc1cccnc1)c1ccc(NC(=O)c2ccc([N+](=O)[O-])cc2)cc1 the EC50 [1] was > 150 µM (not active), the EC50 [2] was > 150 µM (not active) and the EC50 [3] was > 66.7 µM (inactive). For the same compound, the EC50 [4] was 15.9 µM (inconclusive), the AC50 [10] was < 0.195 µM (active) and the EC50 [5] was > 150 µM (not active).
For Cc1cc(Cl)ccc1OCC(=O)Nc1ccccc1CO, the IC50 [13] was > 100 µM (inactive) and the IC50 [14] was > 100 µM (not active).
For C#CCN[C@@H](C)Cc1ccccc1, the AC50 [15] was 25.1 µM (inconclusive), the AC50 [16] was 15.8 µM (inconclusive) and the AC50 [17] was “inconclusive”.
For CCOC(=O)NC(=O)/C(C#N)=C/c1ccc(N(C)C)cc1, the IC50 [18] was 14.7 µM (active), the IC50 [19] was 25.6 µM (active) and the IC50 [20] was > 100 µM (inactive).
With CN(C)CCCn1c(-c2ccccc2)nc(=S)c2c1CCCC2 the IC50 [13] was > 100 µM (inactive), the IC50 [14] was > 100 µM (not active) and the EC50 [21] was > 60 µM (not active). For the same compound, the EC50 [22] was 0.697 µM (active).
For CCOC(=O)c1c(C)nc2c(c1-c1ccccc1)C(=O)CCC2, the AC50 [17] was “inconclusive”.
In the case of COc1ccc(C(N)=NOC(=O)Cc2ccc(C)cc2)cc1, the IC50 [13] is reported as > 100 µM (inactive) and the IC50 [14] is reported as > 100 µM (not active).
In the case of O=C(C1CCN(S(=O)(=O)N2CCOCC2)CC1)N1CCN(Cc2ccccc2)CC1, the AC50 [23] is reported as 14.1 µM (inconclusive) and the AC50 [17] is reported as “inconclusive”.
For COc1ccccc1NC(=O)CCc1nc2sc3c(c2c(=O)[nH]1)CCCC3, the IC50 [18] was 33.1 µM (active), the IC50 [19] was 47.9 µM (active) and the IC50 [20] was > 100 µM (inactive).
With O=C(Cn1sc2ccccc2c1=O)Nc1ccccc1Br the IC50 [24] was 4.66 µM (active).
For COc1ccc(S(=O)(=O)Nc2cc(Cl)ccc2C(=O)O)cc1, the IC50 [24] was > 25 µM (inactive).
In the case of CC(C)(C)c1ccc(C(=O)Nc2cc(Cl)c(F)cc2C(=O)O)cc1, the IC50 [24] is reported as 2.79 µM (active).
For C/C(=N\NC(=S)N1CC2CCC(CC2)C1)c1nccs1, the GI50 [25] was < 0.01 µM (active), the GI50 [26] was < 0.01 µM (active) and the GI50 [27] was < 0.01 µM (active).
With Cc1ccc(CSCC(=O)N/N=C/c2ccc(OCC(=O)Nc3ccc(C)cc3)cc2)cc1 the IC50 [18] was 11.9 µM (active), the IC50 [28] was 3.43 µM (active) and the IC50 [19] was 96.9 µM (active). The IC50 [20] was > 100 µM (inactive).
With O=C(CCl)NC(Cc1ccc(F)cc1)C(=O)O (stereo unspecified) the GI50 [25] was > 100 µM (inactive), the GI50 [26] was > 100 µM (inactive) and the GI50 [27] was > 100 µM (inactive).
With Cc1c2ccnc(C(F)(F)F)c2cc2c1[nH]c1ccccc12 the GI50 [25] was 58.5 µM (inactive), the GI50 [26] was 78.9 µM (inactive) and the GI50 [27] was > 125 µM (inactive).
In the case of CC(O)C(O)C(N)CC=O (stereo unspecified), the GI50 [25] is reported as > 500 µM (inactive), the GI50 [26] is reported as > 500 µM (inactive) and the GI50 [27] is reported as > 500 µM (inactive).
With O=c1ccsn1-c1ccccc1 the IC50 [24] was 13.5 µM (active).
